Results as given in a melting point compilation (Tetko et al.; mined from patent text by program, amines drawn as free bases though some values may be those of a salt).

Row | SMILES | melting point
1 | CCCCOC(=O)c1ccc2ccc(C(=O)O)nc2c1OC(=O)C(C)(C)C | 158 °C
2 | CSc1c(C#N)cnn1-c1ccc(C(F)(F)F)cc1Cl | 59 to 62 °C
3 | C/C(Cl)=C/CCC(=O)C=P(c1ccccc1)(c1ccccc1)c1ccccc1 | 109 to 113 °C
4 | CC1SC(=S)N(C)N=C1c1ncc(Cl)cc1F (centres undefined) | 107 to 112 °C
5 | CCOC(=O)C1=C(COC2CCN(C)CC2)NC(C)=C(C(=O)OC)C1c1cccc(C(F)(F)F)c1Cl (centres undefined) | 180 to 181 °C
6 | CCN(CC)c1cccc2c1OC1(CC1)C2=O | 39.3 °C
7 | COC(=O)COc1cc(C)nc(NC(=O)NS(=O)(=O)c2cccs2)n1 | 114 to 120 °C
8 | CC(C)(C)OC(=O)N(CC#N)CCN(CC#N)C(=O)OC(C)(C)C | 112 to 113 °C
9 | CC(C)(C)c1cc(OC(=O)N2CC(O)C2)cc(C(C)(C)C)c1 | 166 to 170 °C
10 | COc1ccnc(CSc2nc3c(C)c(OC(F)F)c(C)cc3[nH]2)c1C | 190 to 191 °C
11 | COc1cc(Nc2c(C#N)cnc3cc(-c4ccc(CNCCS(C)(=O)=O)cc4)ccc23)c(Cl)cc1Cl | 245 to 246 °C
12 | CCOC(=O)c1c(C)nc2c(cnn2CCOC)c1N | 82 to 85 °C
13 | CN(C(=O)Cc1ccc2oc(=O)[nH]c2c1)[C@H](CN1CC[C@H](O)C1)c1ccccc1 | 207 to 208 °C
14 | COC(CNC(=O)c1ccc(C(=O)N2CCN(c3ncccc3NC(C)C)CC2)nc1)OC | 167 to 169 °C
15 | COc1ccc2c(c1)c(CC(=O)O)c(C)n2CC1CCCCC1 | 173 to 175 °C
16 | C[C@]1(COc2ccc(N3CCN(CC=Cc4ccc(Cl)c(Cl)c4)CC3)cc2)Cn2cc([N+](=O)[O-])nc2O1 | 205 to 206 °C
17 | Nc1nnc2c3c(c(N4CCOCC4)nn12)CCCC3 | 260 to 262 °C

Continued, values first:

Row | melting point | SMILES
18 | 176 to 180 °C | c1nc(Nc2ccc3[nH]ccc3c2)c2sc(-c3ccc(CNC4CC4)cc3)cc2n1
19 | 158 to 160 °C | COc1ccc(CN2CCc3cc(O)ccc3C2)cc1
20 | 145 to 147 °C | CCc1cccc(C)c1CNc1cc(Br)cc2c1nc(C)n2C
21 | 147 to 149 °C | O=C(O)CCCc1cc2nc(Cl)ccc2n1S(=O)(=O)c1cccc(-c2ccccc2)c1
22 | 126 °C | Cc1oc(-c2cccs2)nc1CCOc1ccc([N+](=O)[O-])cn1
23 | 221 to 222 °C | Nc1scc2c1c(=O)oc1ccc3ccccc3c12
24 | 169 to 171 °C | Cc1ccc(C(=O)c2noc(CC(N)=O)n2)cc1
25 | 186 to 188 °C | C[C@@H]1S[C@@H](C(=O)Nc2ccc(CN3CCCC3)cc2)Cc2cc3c(cc2C1=O)OCO3
26 | 100 °C | O=C(O)CCC=C(c1ccc(F)cc1)c1ccc(F)cc1
27 | 254 to 256 °C | O=C(O)CN1C(=O)C(=Cc2ccc(Cc3cccnc3)s2)SC1=S
28 | 108 to 110 °C | Cc1cc(SCCc2ccc3sc(-c4ccc(C(F)(F)F)cc4)nc3c2)ccc1CCC(=O)O
29 | 130 to 131 °C | O=C1CCC(C(=O)OCc2ccccn2)N1 (centres undefined)
30 | 175 to 177 °C | COc1ccc2cc(C(O)C(C)N3CCC(NC(=O)c4ccccc4)CC3)ccc2c1 (centres undefined)
31 | 110 to 115 °C | O=C(c1ccc2[nH]cnc2c1)N1CCC[C@H](c2nc(-c3ccc(F)cc3)no2)C1
32 | 76 to 80 °C | CCCC(=O)NCCCC1c2ccccc2C=Cc2ccccc21
33 | 278 to 280 °C | N#Cc1ccc(-c2csc(Nc3ccccc3O)n2)cc1
34 | 186 to 188 °C | CC1(C)Oc2ccc(C#N)cc2[C@@H](NC(=NC#N)Oc2ccccc2)[C@@H]1O (relative stereo)
35 | 98 °C | O=S(=O)(CC(O)(CI)c1ccccc1)c1ccccc1 (centres undefined)
36 | 148 °C | CC(C)(C)c1ccc(S(=O)(=O)N2c3ccccc3C[C@H]2C(=O)Cl)cc1
37 | 170 to 171 °C | COc1ccc2oc(=O)cc(Oc3c(Cl)cccc3Cl)c2c1
38 | 176 to 177 °C | COc1cccc(C(=N)NN2CCc3ccccc3C2=O)c1
39 | 196 to 198 °C | CCCCc1nc2c(N)nc3ccccc3c2n1CC(C)(C)OCCS(C)(=O)=O
